One experiment concerns the target F508del‐CFTR (Homo sapiens, UniProt P13569, DEL508-508). Put plainly: F508del‐CFTR plasma membrane stability in FRT epithelia (Ussing chamber Isc after cycloheximide). The format is cell-based. Further details: expressed in transfected cells; BHK cells from MD Amaral. The settings on record: for acute potentiation of forskolin-stimulated CFTR-mediated Isc: DMSO-treated low temperature-rescued F508del‐CFTR FRT epithelia, t = 0 h, forskolin 10 μM, ivacaftor 1 μM, then CP‐628006 10 μM. On the procedure: To evaluate the effects of CP‐628006 on the plasma membrane stability of F508del‐CFTR, we used a modification of the method described by Meng et al. ([2017]). After 48‐h incubation at 27°C to rescue the plasma membrane expression of F508del‐CFTR, FRT epithelia were treated with cycloheximide (50 μg·ml^−1) and DMSO or test small molecules, 15 min prior to t = 0 h. At t = 0, 2, 4, and 6 h after these treatments, F508del‐CFTR expressing FRT epithelia were mounted in Ussing chambers (Warner Instrument Corp., Dual Channel Chamber; Harvard Apparatus Ltd., Edenbridge, UK) and Isc responses recorded.
CFTR‐mediated Isc was recorded using a large Cl^− concentration gradient without permeabilizing the basolateral membrane. The solution bathing the basolateral membrane contained (mM): 140 NaCl, 5 KCl, 0.36 K2HPO4, 0.44 KH2PO4, 1.3 CaCl2, 0.5 MgCl2, 10 HEPES, and 4.2 NaHCO3, adjusted to pH 7.2 with Tris ([Cl^−], 149 mM). The solution bathing the apical membrane was identical to that of the basolateral solution with the exception that (mM): 133.3 Na gluconate + 2.5 NaCl and 5 K gluconate replaced 140 NaCl and 5 KCl, respectively, ([Cl^−], 14.8 mM). To compensate for the calcium buffering capacity of gluconate, we used 5.7‐mM Ca^2+ in the apical solution. All solutions were maintained at 37°C and bubbled continuously with 5% CO2.
After cancelling voltage offsets, we clamped transepithelial voltage (referenced to the basolateral solution) at 0 mV and recorded Isc continuously using an epithelial voltage‐clamp amplifier (Warner Instrument Corp., model EC‐825; Harvard Apparatus Ltd.), digitising data as described previously (Li et al., [2004]). The resistance of the filter and solutions, in the absence of cells, was subtracted from all measurements.

In experiment [1] the target is T1, native CFTR, genotype F508del/G551D (Homo sapiens, UniProt P13569, G551D).
T1 construct: For functional studies of native CFTR, we used primary cultures of human bronchial epithelial cells; host or cells: primary human bronchial epithelial cells, F508del/G551D, air-liquid interface cultures, studied at 35°C
T1 sequence (P13569 whole entry F508del/G551D): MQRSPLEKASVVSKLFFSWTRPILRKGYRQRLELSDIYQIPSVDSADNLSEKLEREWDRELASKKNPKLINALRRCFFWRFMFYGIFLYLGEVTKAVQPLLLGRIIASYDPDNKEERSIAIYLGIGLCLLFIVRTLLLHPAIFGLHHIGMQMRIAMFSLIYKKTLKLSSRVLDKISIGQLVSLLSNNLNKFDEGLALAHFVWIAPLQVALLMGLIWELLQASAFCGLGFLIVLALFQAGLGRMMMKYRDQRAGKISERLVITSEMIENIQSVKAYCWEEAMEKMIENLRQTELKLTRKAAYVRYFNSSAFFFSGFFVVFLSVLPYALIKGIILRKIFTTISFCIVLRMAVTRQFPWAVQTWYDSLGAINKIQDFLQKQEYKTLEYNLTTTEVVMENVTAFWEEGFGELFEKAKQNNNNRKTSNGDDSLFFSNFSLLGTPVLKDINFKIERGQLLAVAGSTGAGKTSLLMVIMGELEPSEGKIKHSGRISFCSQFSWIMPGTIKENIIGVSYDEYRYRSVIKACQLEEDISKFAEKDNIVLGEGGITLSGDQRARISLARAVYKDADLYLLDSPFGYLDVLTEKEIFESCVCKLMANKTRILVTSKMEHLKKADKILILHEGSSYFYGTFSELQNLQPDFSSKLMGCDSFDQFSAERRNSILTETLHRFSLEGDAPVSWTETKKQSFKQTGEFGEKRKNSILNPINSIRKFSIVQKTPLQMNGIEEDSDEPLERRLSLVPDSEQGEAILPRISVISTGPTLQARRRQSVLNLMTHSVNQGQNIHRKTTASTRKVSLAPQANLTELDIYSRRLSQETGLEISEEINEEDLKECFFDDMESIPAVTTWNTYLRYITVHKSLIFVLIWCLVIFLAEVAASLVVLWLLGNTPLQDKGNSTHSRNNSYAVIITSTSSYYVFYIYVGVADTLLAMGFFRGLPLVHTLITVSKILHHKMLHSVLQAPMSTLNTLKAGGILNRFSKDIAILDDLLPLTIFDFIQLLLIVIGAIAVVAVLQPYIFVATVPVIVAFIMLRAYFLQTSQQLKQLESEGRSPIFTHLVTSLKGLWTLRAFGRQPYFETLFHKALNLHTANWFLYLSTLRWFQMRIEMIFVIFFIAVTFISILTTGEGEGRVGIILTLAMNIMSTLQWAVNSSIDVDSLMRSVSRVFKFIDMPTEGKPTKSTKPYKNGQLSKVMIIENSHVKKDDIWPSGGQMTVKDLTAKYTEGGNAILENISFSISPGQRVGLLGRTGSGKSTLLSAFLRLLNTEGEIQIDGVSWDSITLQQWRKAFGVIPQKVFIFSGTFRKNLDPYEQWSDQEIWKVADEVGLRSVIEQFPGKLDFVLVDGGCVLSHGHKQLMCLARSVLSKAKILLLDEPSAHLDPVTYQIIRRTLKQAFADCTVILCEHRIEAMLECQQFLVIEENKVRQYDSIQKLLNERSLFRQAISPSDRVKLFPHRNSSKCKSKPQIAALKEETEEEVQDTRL
The experiment is described as follows: Ussing chamber CFTR-mediated short-circuit current (Isc) in F508del/G551D human bronchial epithelial cells. In kind it is cell-based. The settings on record: for EC50: F508del/G551D epithelia of hBE cells, Isc, 35°C, read-out: EC50 (μM) (95% CI); for Emax: HBE, read-out: Maximal effect (%) (95% CI). An excerpt:
For functional studies of native CFTR, we used primary cultures of human bronchial epithelial cells of genotypes F508del/F508del and F508del/G551D. Passage 1 (P1) human bronchial epithelial cells from SH Randell (University of North Carolina [UNC] Cystic Fibrosis Center Tissue Procurement and Cell Culture Core) were differentiated at an air–liquid interface as described by Neuberger et al., ([2011]) with some modifications. The research conducted on human cells at UNC has been verified as compliant with Pfizer policies, including institutional review board or institutional ethics committee approval. Cells were thawed and expanded in BEGM™ Bronchial Epithelial Cell Growth Medium (cat. no. CC‐3170, Lonza, USA) supplemented with retinoic acid (10 nM) and banked at P2. For functional assays, P2 cells were expanded to P4, and 5 × 10^5 P4 human bronchial epithelial cells were seeded in growth medium on Snapwell filter inserts (cat. no. 3801, Corning, NY, USA). Cells were switched to differentiation medium the following day and cultured submerged for 3 days before the medium was removed from the apical membrane to establish an air–liquid interface. Thereafter, the basolateral medium was changed every 2–3 days and mucus washed from the apical membrane every 2–3 weeks and the day prior to use starting 21 days after initiating air–liquid interface culture.
After >30 days of air–liquid interface culture on Snapwell filter inserts, human bronchial epithelial cells formed well differentiated, electrically tight epithelia (Rt > 200 Ω cm^2). Prior to study, F508del/F508del and F508del/G551D human bronchial epithelial cell cultures were incubated at 37°C and 5% CO2.
Epithelia were mounted in Ussing chambers and data acquired and analysed as described above for Ussing chamber studies of FRT cells heterologously expressing CFTR with the following exceptions. Both the apical and basolateral membranes were bathed in solutions containing (mM): 137 NaCl, 4 KCl, 1.8 CaCl2, 1 MgCl2, 10 Na HEPES, and 10 glucose (pH 7.4 with NaOH). Epithelia of F508del/G551D human bronchial epithelial cells were studied at 35°C, whereas those of F508del/F508del human bronchial epithelial cells were assayed at 27°C to maintain the apical membrane expression of F508del‐CFTR. After cancelling voltage offsets, transepithelial voltage was clamped at 0 mV and short‐circuit current (Isc) recorded continuously. The protocol to record CFTR‐mediated Isc was the same as for ICl ^apical measurements except that amiloride (30 μM, apical solution) was added to inhibit the epithelial Na^+ channel before forskolin (10 μM, apical and basolateral solutions) addition.

Chain of F508del‐CFTR (P13569 with tags, fused parts or gaps DEL508-508): as the sequence (P13569 whole entry F508del/G551D) above, with D550G counted along it

`Cc1ncccc1CNC(=O)c1ccc2c(c1)CC[C@H]1C[C@](O)(CCC(F)(F)F)CC[C@]21Cc1ccccc1` (racemic) [CP‐628006, rac‐(4bR,7R,8aS)‐4b‐benzyl‐7‐hydroxy‐N‐((2‐methylpyridin‐3‐yl)methyl)‐7‐(3,3,3‐trifluoropropyl)‐4b,5,6,7,8,8a,9,10‐octahydrophenanthrene‐2‐carboxamide]: the “acute potentiation of forskolin-stimulated CFTR-mediated Isc” value at F508del‐CFTR is recorded as “had little additional effect”. Also, the “decline of CFTR-mediated Isc over 6 h” value at F508del‐CFTR (low temperature-rescued F508del‐CFTR FRT epithelia treated with cycloheximide 50 μg·ml−1 and compound 10 μM, 37°C) is on record as “slower”. Also, in experiment [1], the EC50 was determined as 0.14 µM and the Emax worked out at 18%.

Consider `CC(C)(C)c1cc(C(C)(C)C)c(NC(=O)c2c[nH]c3ccccc3c2=O)cc1O` [ivacaftor, reference compound], for which the “acute potentiation of forskolin-stimulated CFTR-mediated Isc” value at F508del‐CFTR is reported as “potentiated two‐fold”. Moreover, in experiment [1], the EC50 was 0.005 µM and the Emax was 103%.
